Assay [1] deals with CT26 CRC cell transplants. The assay can be described thus: syngeneic subcutaneous CT26 colorectal cancer mouse model: tumor growth and survival. In kind it is in vivo, female BALB/c mice. The method, then: (§1) As for experiments employing the use of chemotherapy, carboplatin (Sindan, 10mg/ml), oxaliplatin (Mylan, 5mg/ml in infusion solution) and paclitaxel (Accord, 6mg/ml in 527mg/ml polyoxyethylated castor oil and 391 mg/ml ethanol) were provided by Istituto Nazionale dei Tumori, Milano.
(§2) The impact of oral Leucine supplementation, as given at a daily dose of 500 mg/Kg Leucine by oral gavage, was investigated on in vivo tumor growth and mouse survival in orthotopic (4T1 and E0771 TNBC cells injected in the mammary fat pad of female BALB/c mice and female C57BL6/J mice, respectively) or subcutaneous (CT26: murine colorectal carcinoma - CRC, or LLC: murine […] lung carcinoma cells, injected in the subcutaneous tissue of female BALB/c mice and female C57BL6/J mice, respectively) syngeneic tumor models.

Assay [2] deals with LLC lung cell transplants. As to the kind of experiment: syngeneic subcutaneous LLC lung cancer mouse model: tumor growth and survival. It is filed as in vivo, female C57BL6/J mice. The method, then:
as §1, §2

Another assay relates to E0771 cell transplants. The assay can be described thus: syngeneic orthotopic E0771 TNBC mouse model: tumor growth and survival. In kind it is in vivo, female C57BL6/J mice. The method, then: as §1, §2
For another assay, the system named is 4T1-luc cell transplants. The assay can be described thus: syngeneic orthotopic 4T1 TNBC mouse model: tumor growth and survival. In kind it is in vivo, female BALB/c mice. The protocol:
as §1, §2

The subject of assay [3] is syngeneic mouse tumor models. To be noted: Leucine + anti-PD-L1 immunotherapy, tumor model not stated.
Setting [4] is: Leucine 500 mg/kg daily oral gavage + anti-PD-L1 MoAb 100 ug per mouse i.p. every other day, 4 cycles.
Where [5] appears, read: Leucine 500 mg/kg daily oral gavage + cyclic fasting (48-hour water-only fasting, repeated every 7 days).
Where [6] appears, read: Leucine 500 mg/kg daily oral gavage + oxaliplatin 5 mg/kg once a week i.p., effect less evident, yet still statistically significant.
Where [7] appears, read: Leucine 500 mg/kg once a day by oral gavage, alone, standard diet.
[8] abbreviates: Leu + fasting + anti-PD-L1, compared to anti-PDL1 MoAb + fasting.
Setting [9] is: Leucine 500 mg/kg daily + cyclic fasting + carboplatin 50 mg/kg weekly + anti-PD-L1 MoAb, compared to the fasting-Leucine doublet.
Setting [10] is: Leucine 500 mg/kg daily oral gavage + carboplatin 50 mg/kg once a week i.p., effect less evident, yet still statistically significant.
Setting [11] is: Leucine 500 mg/kg daily oral gavage + paclitaxel 30 mg/kg once a week i.p., most relevant effects in this model.
The mark [12] stands for this setting: carboplatin alone, 50 mg/kg once a week i.p.
Setting [13] is: oxaliplatin alone, 5 mg/kg once a week i.p.
The mark [14] stands for this setting: paclitaxel alone, 30 mg/kg once a week i.p.

The values below come from EP4599826A1, “LEUCINE FOR USE IN THE TREATMENT OF CANCER” (priority 2024, dated 2025).

In the case of `CC(C)C[C@H](N)C(=O)O` [Leucine], the animal survival result in assay [1] (Leucine 500 mg/kg daily + cyclic fasting + oxaliplatin 5 mg/kg weekly + anti-PD-L1 MoAb, compared to the fasting-Leucine doublet) is on record as “meaningful prolongation of animal survival”; in assay [1] (setting [4]), “prolonged animal survival”; in assay [1] (setting [5]), “significant prolongation of animal survival”; in assay [1] (setting [6]) it was “prolonging animal survival”; in assay [1] (setting [7]), “prolonged animal survival”; in assay [2] (setting [8]), “prolonged animal survival”. For the same compound, the animal survival result in assay [2] (setting [9]) was “meaningful prolongation of animal survival”; in assay [2] (setting [10]) it was “prolonging animal survival”; in assay [2] (setting [5]), “significant prolongation of animal survival”; in assay [2] (setting [7]) it was “prolonged animal survival”; in the assay with E0771 cell transplants (Leucine 500 mg/kg daily + cyclic fasting + paclitaxel 30 mg/kg weekly + anti-PD-L1 MoAb, compared to the fasting-Leucine doublet), “meaningful prolongation of animal survival”; in the assay on E0771 cell transplants (setting [4]), “prolonged animal survival”. Also, the animal survival entry in the assay on E0771 cell transplants (setting [5]) was “significant prolongation of animal survival”; in the assay on E0771 cell transplants (setting [11]) it was “prolonging animal survival”; in the assay on E0771 cell transplants (setting [7]) it was “prolonged animal survival”; in the assay on 4T1-luc cell transplants (setting [9]) it was “meaningful prolongation of animal survival”; in the assay with 4T1-luc cell transplants (setting [4]), “prolonged animal survival”; with 4T1-luc cell transplants (setting [10]), “prolonging animal survival”. Moreover, the animal survival result in the assay on 4T1-luc cell transplants (setting [5]) is “significant prolongation of animal survival”; in the assay with 4T1-luc cell transplants (setting [7]), “prolonged animal survival”. The “in vivo tumor growth” value in assay [1] (setting [4]) was “cooperatively slowed down in vivo tumor growth”; in assay [1] (setting [5]), “cooperative reduction of in vivo tumor growth”; in assay [1] (setting [6]) it was “cooperated with chemotherapy in slowing down in vivo tumor growth”; in assay [2] (setting [10]), “cooperated with chemotherapy in slowing down in vivo tumor growth”; in assay [2] (setting [5]), “cooperative reduction of in vivo tumor growth”; in the assay on E0771 cell transplants (setting [4]), “cooperatively slowed down in vivo tumor growth”. The “in vivo tumor growth” value in the assay with E0771 cell transplants (setting [5]) is reported as “cooperative reduction of in vivo tumor growth”; in the assay with E0771 cell transplants (setting [11]), “cooperated with chemotherapy in slowing down in vivo tumor growth”; in the assay with 4T1-luc cell transplants (setting [4]) it was “cooperatively slowed down in vivo tumor growth”; with 4T1-luc cell transplants (setting [10]), “cooperated with chemotherapy in slowing down in vivo tumor growth”; with 4T1-luc cell transplants (setting [5]), “cooperative reduction of in vivo tumor growth”. Moreover, the primary tumor growth result (in assay [1] (setting [7]); in assay [2] (setting [7]); with E0771 cell transplants (setting [7]); in the assay with 4T1-luc cell transplants (setting [7])) was “slowed down primary tumor growth” in each case. For the same compound, the primary tumor entry (in assay [1] (quadruple treatment: Leucine + cyclic fasting + oxaliplatin + anti-PD-L1 MoAb); in the assay with E0771 cell transplants (quadruple treatment: Leucine + cyclic fasting + paclitaxel + anti-PD-L1 MoAb)) was “complete regression of the primary tumor in some mice” throughout. In addition, the tumor growth result in assay [2] (setting [8]) is given as “significantly slowed down tumor growth”. Besides, the primary tumor mass result in assay [3] (observed in some animals) is on record as “completed disappearance of the primary tumor mass”. The “survival of some mice” value in assay [3] (some mice) is reported as “long-term survival”.

For the compound `N.N.O=C([O-])C1(C(=O)[O-])CCC1.[Pt+2]` [carboplatin, reference compound], in assay [2] (setting [12]), the animal survival result is listed as “statistically significant prolongation of animal survival” and the “in vivo tumor growth” value is “slowed down in vivo tumor growth”. For the same compound, in the assay with 4T1-luc cell transplants (setting [12]), the animal survival entry is on record as “statistically significant prolongation of animal survival” and the “in vivo tumor growth” value is listed as “slowed down in vivo tumor growth”.

For `O=C1[O][Pt]2([NH][C@@H]3CCCC[C@H]3[NH]2)[O]C1=O` [oxaliplatin, reference compound], in assay [1] (setting [13]), the animal survival entry is reported as “statistically significant prolongation of animal survival” and the “in vivo tumor growth” value is given as “slowed down in vivo tumor growth”.

On to `CC(=O)O[C@H]1C(=O)[C@@]2(C)[C@H]([C@H](OC(=O)c3ccccc3)[C@]3(O)C[C@H](OC(=O)[C@H](O)[C@@H](NC(=O)c4ccccc4)c4ccccc4)C(C)=C1C3(C)C)[C@]1(OC(C)=O)CO[C@@H]1C[C@@H]2O` [paclitaxel, reference compound], for which, in the assay on E0771 cell transplants (setting [14]), the animal survival result is recorded as “statistically significant prolongation of animal survival” and the “in vivo tumor growth” value is recorded as “slowed down in vivo tumor growth”.
